# Measurements reported in patent publication US10584116B2, “Heterocyclic sulfonamide derivative and medicine containing same” (EA Pharma Co., Ltd., priority 2016, dated 2020).
# Target: human TRPA1 (Homo sapiens (Human), UniProt O75762)
# Assay: Measurement of TRPA1 antagonist activity (intracellular calcium increase induced by allylisothiocyanate in 293T cells transfected with human TRPA1)
# Type: cell-based
# Details: 293T cells expressing human TRPA1, allylisothiocyanate stimulation, FLIPR Calcium4 fluorescence; read-out: hTRPA1 IC50
# Experimental: Measurement of TRPA1 Antagonist Activity
# Human TRPA1 Expression Plasmid
# Using cDNA encoding human TRPA1 (GenBank accession No. NM_007332) (manufactured by Kazusa DNA Research Institute, item No. FHC07217) as a template, primer 1 (SEQ ID NO: 1) and primer 2 (SEQ ID NO: 2), PCR by PfuUltra High-Fidelity DNA Polymerase (Stratagene) was performed, and full-length human TRPA1 gene was amplified.
# A recognition site (underlined) of restriction enzyme HindIII was added to the 5′ end of human TRPA1 gene, and XbaI site (underlined) was added to the 3′ end of human TRPA1 gene, and GTT of the template sequence was changed to termination codon TAG (bold). The obtained double stranded DNA was enzyme-digested with HindIII and XbaI, and introduced into a multicloning site of expression plasmid pcDNA3.1/zeo(+) (manufactured by Invitrogen) to give a human TRPA1 expression plasmid.
# Human embryonic kidney-derived 293T cells were cultured in Dulbecco's Modified Eagle Medium containing 10% fetal bovine serum, 10 unit penicillin, and 10 μg streptomycin. One day before assay, 3×10^6 of 293T cells were plated on a petri dish having a diameter of 10 cm, and cultured in a CO2 incubator for 24 hr. OPTI-MEM I Reduced Serum Media (Invitrogen) (600 μL), Mirus TransIT-293 (Mirus Bio) (18 μL), and human TRPA1 expression plasmid (6 μg) were mixed, the total amount of the mixture was added to the cells on the petri dish to allow for gene transfer. The cells were recovered about for 8 hr later, plated on a poly-D-lysine coated 384 well black/clear bottom plate at 12,000 cells/well, and cultured overnight.
# Measurement of Intracellular Calcium Increase
# The medium was removed from the 384 well plate, calcium indicator (Molecular Device, trade name: FLIPR Calcium4 Assay Kit) dissolved in HBSS (Thermo Fisher Scientific) (pH 7.2) containing 20 mM HEPES was added (38 μL/well), and the cells were stained in a CO2 incubator for 1 hr. The 384 well plate was stood at room temperature for not less than 15 min, set on FDSS7000 (Hamamatsu Photonics K.K.), and a test substance solution was added at 10 μL/well. After 10 min, allylisothiocyanate solution (12 μL/well) was added, the relative fluorescence intensity was measured for 5 min after addition of the allylisothiocyanate solution.
# Test Substance Preparation
# Preparation of Test Substance Solution and Allylisothiocyanate Solution
# A test substance solution was prepared to have a composition of HBSS (Thermo Fisher Scientific) (pH 7.2) containing 0.48% dimethyl sulfoxide, a test substance at 4.8-fold concentration of the evaluation concentration, 0.1% bovine serum albumin and 20 mM HEPES. An allylisothiocyanate solution was prepared to have a composition of HBSS (Thermo Fisher Scientific) (pH 7.2) containing 0.1% dimethyl sulfoxide, 100 μM allylisothiocyanate, 0.1% bovine serum albumin and 20 mM HEPES.
# Calculation of Antagonist Activity
# The activity rate of a test substance at each concentration was calculated, wherein the relative fluorescence intensity change of a well free of a test substance and containing allylisothiocyanate is 100% activity rate, and the relative fluorescence intensity change of a well free of a test substance and allylisothiocyanate is 0% activity rate. The inhibitory rate of a test substance at each concentration was calculated by subtracting the activity rate of the test substance from 100% activity rate, and the concentration of a test substance showing 50% inhibitory rate was calculated as IC50 from the sigmoid approximate curve by XLfit (idbs).
# human TRPA1, sequence (O75762 whole entry): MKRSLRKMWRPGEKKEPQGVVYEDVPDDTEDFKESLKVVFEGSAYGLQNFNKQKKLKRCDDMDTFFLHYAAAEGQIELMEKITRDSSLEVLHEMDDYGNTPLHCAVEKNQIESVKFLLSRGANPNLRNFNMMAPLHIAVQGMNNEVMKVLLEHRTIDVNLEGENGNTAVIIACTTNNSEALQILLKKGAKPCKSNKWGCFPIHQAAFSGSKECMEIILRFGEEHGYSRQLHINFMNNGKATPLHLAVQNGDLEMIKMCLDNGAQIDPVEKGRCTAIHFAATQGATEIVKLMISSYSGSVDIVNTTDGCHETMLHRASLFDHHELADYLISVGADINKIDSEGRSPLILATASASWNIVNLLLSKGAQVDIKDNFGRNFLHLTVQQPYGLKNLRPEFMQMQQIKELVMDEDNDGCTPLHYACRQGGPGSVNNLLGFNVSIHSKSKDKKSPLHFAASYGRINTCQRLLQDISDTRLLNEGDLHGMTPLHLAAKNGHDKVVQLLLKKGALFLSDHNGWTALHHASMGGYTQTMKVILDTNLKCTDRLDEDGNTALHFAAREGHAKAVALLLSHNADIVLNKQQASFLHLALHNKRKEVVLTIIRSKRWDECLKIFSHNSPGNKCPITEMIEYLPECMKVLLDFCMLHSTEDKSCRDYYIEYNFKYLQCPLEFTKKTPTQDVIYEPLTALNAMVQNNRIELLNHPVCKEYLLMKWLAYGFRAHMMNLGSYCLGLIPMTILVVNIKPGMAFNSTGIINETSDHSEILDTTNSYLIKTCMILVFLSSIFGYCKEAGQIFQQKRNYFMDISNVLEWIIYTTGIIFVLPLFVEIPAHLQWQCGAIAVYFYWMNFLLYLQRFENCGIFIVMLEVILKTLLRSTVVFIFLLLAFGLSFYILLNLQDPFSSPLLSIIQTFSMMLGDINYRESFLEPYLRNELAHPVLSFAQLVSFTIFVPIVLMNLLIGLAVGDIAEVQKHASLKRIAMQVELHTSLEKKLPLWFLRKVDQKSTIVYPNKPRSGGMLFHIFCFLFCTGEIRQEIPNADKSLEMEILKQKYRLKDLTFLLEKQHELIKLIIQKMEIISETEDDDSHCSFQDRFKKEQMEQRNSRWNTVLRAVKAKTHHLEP
row,SMILES,IC50 [nM]
1,"CC(C)n1cc(CNC(=O)[C@@H]2CCCN2S(=O)(=O)c2cc3cc(F)ccc3o2)cc(-c2ccc(C(F)(F)F)nc2)c1=O [Example 49, (2S)-1-(5-fluorobenzofuran-2-yl)sulfonyl-N-[[1-isopropyl-6-oxo-5-[6-(trifluoromethyl)-3-pyridyl]-3-pyridyl]methyl]pyrrolidine-2-carboxamide]",45
2,"CC(C)n1c(=O)c(CNC(=O)[C@@H]2CCCN2S(=O)(=O)c2cc3ccccc3o2)cn(-c2ccc(Cl)cc2)c1=O [Example 40, (2S)-1-(benzofuran-2-ylsulfonyl)-N-[[1-(4-chlorophenyl)-3-isopropyl-2,4-dioxo-pyrimidin-5-yl]methyl]pyrrolidine-2-carboxamide]",85
3,"C[C@H](NS(=O)(=O)c1cc2cc(F)ccc2o1)C(=O)NCc1cn(-c2ccc(C(F)(F)F)cc2)c(=O)n(C)c1=O [Example 6, (2S)-2-[(5-fluorobenzofuran-2-yl)sulfonylamino]-N-[[3-methyl-2,4-dioxo-1-[4-(trifluoromethyl)phenyl]-pyrimidin-5-yl]methyl]propanamide]",540
4,"Cn1c(=O)c(CNC(=O)[C@@H]2CCCN2S(=O)(=O)c2cc3cc(F)ccc3o2)cn(-c2ccc(C(F)(F)F)cc2)c1=O [Example 5, (2S)-1-(5-fluorobenzofuran-2-yl)sulfonyl-N-[[3-methyl-2,4-dioxo-1-[4-(trifluoromethyl)phenyl]-pyrimidin-5-yl]methyl]pyrrolidine-2-carboxamide]",21
5,"CC(C)n1cc(CNC(=O)[C@@H]2CCCN2S(=O)(=O)c2cc3ccccc3o2)cc(-c2ccc(C(F)(F)F)nc2)c1=O [Example 48, (2S)-1-(benzofuran-2-ylsulfonyl)-N-[[1-isopropyl-6-oxo-5-[6-(trifluoromethyl)-3-pyridyl]-3-pyridyl]methyl]pyrrolidine-2-carboxamide]",210
6,"O=C(NCc1ccc(=O)n(-c2ccc(C(F)(F)F)cc2)c1)[C@@H]1CCCN1S(=O)(=O)c1cc2ccccc2o1 [Example 14, (2S)-1-(benzofuran-2-ylsulfonyl)-N-[[6-oxo-1-[4-(trifluoromethyl)phenyl]-3-pyridyl]methyl]pyrrolidine-2-carboxamide]",160
7,"CC(C)n1c(=O)c(CNC(=O)[C@@H]2CCCN2S(=O)(=O)c2cc3cc(F)ccc3o2)cn(-c2ccc(C(F)(F)F)nc2)c1=O [Example 30, (2S)-1-(5-fluorobenzofuran-2-yl)sulfonyl-N-[[3-isopropyl-2,4-dioxo-1-[6-(trifluoromethyl)-3-pyridyl]pyrimidin-5-yl]methyl]pyrrolidine-2-carboxamide]",10
8,"CC(C)n1cc(-c2ccc(C(F)(F)F)nc2)cc(CNC(=O)[C@@H]2CCCN2S(=O)(=O)c2cc3ccccc3o2)c1=O [Example 28, (2S)-1-(benzofuran-2-ylsulfonyl)-N-[[1-isopropyl-2-oxo-5-[6-(trifluoromethyl)-3-pyridyl]-3-pyridyl]methyl]pyrrolidine-2-carboxamide]",180
9,"CC(C)n1c(=O)c(CNC(=O)[C@@H]2CCCN2S(=O)(=O)c2cc3cc(F)ccc3o2)cn(-c2ccc(C(F)(F)F)cn2)c1=O [Example 34, (2S)-1-(5-fluorobenzofuran-2-yl)sulfonyl-N-[[3-isopropyl-2,4-dioxo-1-[5-(trifluoromethyl)-2-pyridyl]pyrimidin-5-yl]methyl]pyrrolidine-2-carboxamide]",18
10,"CC(C)n1cc(-c2ccc(C(F)(F)F)cc2)cc(CNC(=O)[C@@H]2CCCN2S(=O)(=O)c2cc3cnccc3o2)c1=O [Example 27, (2S)-1-fro[3,2-c]pyridin-2-ylsulfonyl-N-[[1-isopropyl-2-oxo-5-[4-(trifluoromethyl)phenyl]-3-pyridyl]methyl]pyrrolidine-2-carboxamide]",93
11,"CC(C)n1cc(-c2ccc(C(F)(F)F)nc2)cc(CNC(=O)[C@@H]2CCCN2S(=O)(=O)c2cc3cc(F)ccc3o2)c1=O [Example 37, (2S)-1-(5-fluorobenzofuran-2-yl)sulfonyl-N-[[1-isopropyl-2-oxo-5-[6-(trifluoromethyl)-3-pyridyl]-3-pyridyl]methyl]pyrrolidine-2-carboxamide]",31
12,"CC(C)n1cc(CNC(=O)[C@@H]2CCCN2S(=O)(=O)c2cc3ccccc3o2)cc(-c2ccc(C(F)(F)F)cc2)c1=O [Example 13, (2S)-1-(benzofuran-2-ylsulfonyl)-N-[[1-isopropyl-6-oxo-5-[4-(trifluoromethyl)phenyl]-3-pyridyl]methyl]pyrrolidine-2-carboxamide]",27
13,"CC(C)n1cc(-c2ccc(C(F)(F)F)cc2)cc(CNC(=O)[C@@H]2CCCN2S(=O)(=O)c2cc3ccccc3o2)c1=O [Example 15, (2S)-1-(benzofuran-2-ylsulfonyl)-N-[[1-isopropyl-2-oxo-5-[4-(trifluoromethyl)phenyl]-3-pyridyl]methyl]pyrrolidine-2-carboxamide]",79
14,"CC(C)n1c(=O)c(CNC(=O)[C@@H]2CC(F)(F)CN2S(=O)(=O)c2cc3cc(F)ccc3o2)cn(-c2ccc(C(F)(F)F)cc2)c1=O [Example 17, (2S)-4,4-difluoro-1-(5-fluorobenzofuran-2-yl)sulfonyl-N-[[3-isopropyl-2,4-dioxo-1-[4-(trifluoromethyl)phenyl]pyrimidin-5-yl]methyl]pyrrolidine-2-carboxamide]",46
15,"CC(C)n1c(=O)c(CNC(=O)[C@@H]2CCN2S(=O)(=O)c2cc3cc(F)ccc3o2)cn(-c2ccc(C(F)(F)F)cc2)c1=O [Example 18, (2S)-1-(5-fluorobenzofuran-2-yl)sulfonyl-N-[[3-isopropyl-2,4-dioxo-1-[4-(trifluoromethyl)phenyl]-pyrimidin-5-yl]methyl]azetidine-2-carboxamide]",9
16,"CC(C)n1c(=O)c(CNC(=O)[C@@H]2CCCN2S(=O)(=O)c2cc3c(F)cccc3o2)cn(-c2ccc(C(F)(F)F)cc2)c1=O [Example 10, (2S)-1-(4-fluorobenzofuran-2-yl)sulfonyl-N-[[3-isopropyl-2,4-dioxo-1-[4-(trifluoromethyl)phenyl]-pyrimidin-5-yl]methyl]pyrrolidine-2-carboxamide]",25
17,"CC(C)n1cc(CNC(=O)[C@@H]2[C@@H](O)CCN2S(=O)(=O)c2cc3cc(F)ccc3o2)cc(-c2ccc(C(F)(F)F)cc2)c1=O [Example 47, (2S,3S)-1-(5-fluorobenzofuran-2-yl)sulfonyl-3-hydroxy-N-[[1-isopropyl-6-oxo-5-[4-(trifluoromethyl)phenyl]-3-pyridyl]methyl]pyrrolidine-2-carboxamide]",230
18,"CC(C)n1c(=O)c(CNC(=O)[C@@H]2CCCN2S(=O)(=O)c2cc3ccccc3o2)cn(-c2ccc(C(F)(F)F)cn2)c1=O [Example 33, (2S)-1-(benzofuran-2-ylsulfonyl)-N-[[3-isopropyl-2,4-dioxo-1-[5-(trifluoromethyl)-2-pyridyl]pyrimidin-5-yl]methyl]pyrrolidine-2-carboxamide]",44
19,"CC(C)n1c(=O)c(CNC(=O)[C@@H]2CCCN2S(=O)(=O)c2ccc(F)cc2)cn(-c2ccc(C(F)(F)F)cc2)c1=O [Example 12, (2S)-1-(4-fluorophenyl)sulfonyl-N-[[3-isopropyl-2,4-dioxo-1-[4-(trifluoromethyl)phenyl]pyrimidin-5-yl]methyl]pyrrolidine-2-carboxamide]",120
